# Source: US7208514B2, “Tumorigenesis inhibitor” (Mitsubishi Pharma Corporation, priority 2003, dated 2007)
# Experiments:
# [1] = test system: azoxymethane-induced aberrant crypt foci in colon; assay: Suppressive effect on the formation of azoxymethane-induced aberrant crypt foci in colon; assay type: in vivo, male ICR mice; conditions: for number of colonic ACF / body weight: mean ± standard error; for number of colonic ACF: control 10.3 ± 1.7; for body weight: mixed diet for 5 weeks, azoxymethane-treated mice
# [2] = literature statement; cited from earlier work
# [3] = test system: lipid peroxide production in homogenate of the brain; assay: Examination of antioxidative effect (thiobarbituric acid reaction product, lipid peroxide, in brain homogenate); assay type: biochemical, Wistar rat
# Experimental: The absorbance of a thiobarbituric acid reaction product (lipid peroxide) generated 1 hr after the incubation was measured.
# [4] = test system: dimethylhydrazine-induced colonic ACF and colonic mucosal cell growth; assay: Suppressive effect on the formation of dimethylhydrazine-induced colonic ACF and cancer cell growth; assay type: in vivo, male ICR mice; conditions: for number of colonic ACF: mean ± standard error, control 30.7 ± 3.3
# [5] = Y-700 5-20 mg/kg mixed diet, 5 weeks
# [6] = Y-700 10 and 20 mg/kg mixed diet, 10 weeks
# [7] = Y-700 mixed diet 10 and 20 mg/kg diet
structure (smiles),measurement,setting,value
"CC(C)(C)COc1ccc(-n2cc(C(=O)O)cn2)cc1C#N [Y-700, 1-(3-cyano-4-neopentyloxyphenyl)pyrazole-4-carboxylic acid]",number of colonic ACF,"[1]; Y-700 5 mg/kg diet, 5 weeks",7.0 ± 1.3 n/mice
same,body weight,[1]; Y-700 5 mg/kg diet,40.4 ± 1.2 g
same,number of colonic ACF,"[1]; Y-700 10 mg/kg diet, 5 weeks",7.0 ± 0.7 n/mice
same,body weight,[1]; Y-700 10 mg/kg diet,39.9 ± 1.4 g
same,number of colonic ACF,"[1]; Y-700 15 mg/kg diet, 5 weeks",6.5 ± 0.6 n/mice
same,body weight,[1]; Y-700 15 mg/kg diet,40.3 ± 0.9 g
same,number of colonic ACF,"[1]; Y-700 20 mg/kg diet, 5 weeks",5.5 ± 0.7 n/mice
same,body weight,[1]; Y-700 20 mg/kg diet,39.9 ± 1.0 g
same,body weight change attributable to Y-700 administration,[1]; [5],nor was observed body weight change
same,feed intake,[1]; [5],No change
same,"number of colonic ACF, trend",[1]; Y-700 mixed diet 5-20 mg/kg diet,dose-dependent decreases
same,effect on the increase in the number of colonic ACF induced by azoxymethane,[1]; conclusion in words,suppressive effect
same,radical removing (scavenging) effect,[2],free of radical scavenging effect
same,change in production amount of lipid peroxide attributable to addition of Y-700,[3]; 0.5-20 μg/ml,No change
same,antioxidative effect,[3]; conclusion in words,no antioxidative effect
same,number of colonic ACF,"[4]; Y-700 10 mg/kg diet, 10 weeks",20.7 ± 2.0 n/mouse
same,number of colonic ACF,"[4]; Y-700 20 mg/kg diet, 10 weeks",22.9 ± 1.4 n/mouse
same,body weight change attributable to Y-700 administration,[4]; [6],nor was observed body weight change
same,feed intake,[4]; [6],No change
same,"cell growth rate of the surrounding areas, change in words",[4]; [7],significant decreases
same,"number of colonic ACF, change in words",[4]; [7],significant decreases
"Oc1ncnc2[nH]ncc12 [allopurinol, reference compound]",radical removing (scavenging) effect,[2],shows a radical removing (scavenging) effect
